Data reported in patent US20180066005A1, “TRANS-RESVERATROL POLYSACCHARIDE, METHOD OF PRODUCING THE SAME, AND COMPOSITION COMPRISING THE SAME” (FAITH CO., LTD., priority 2013, published 2018).

How the values were obtained:
3T3 mouse fibroblasts = test: Rescue activity from cell death induced by hydrogen peroxide; assay type: cell-based; settings: 10 μM for 3 hours, then hydrogen peroxide 15 μM, culture for 12 hours (FIG. 10)
Description: Subsequently, the cultured cells were fixed with 4% paraformaldehyde and stained with Hoechst. Cells in which aggregation in the cell nucleus was observed were determined to be cell death, and the percentage of cell death (vertical axis in the graph) was calculated.
An experiment was conducted to confirm the trans-resveratrol polysaccharide's rescue activity from cell death. RSV, 4M-RSV, and 3P-RSV were each added to a culture medium of 3T3 mouse fibroblasts so that the final concentration was 10 μM, and the fibroblasts were cultured with 5% carbon dioxide at 37° C. for 3 hours. Subsequently, hydrogen peroxide was added to the culture medium so that the final concentration was 15 μM, thereby inducing cell death.
After culture for 12 hours, cell death was determined in the same manner as in Example 1, and the percentage of cell death was calculated.

[1] = system: normal human three-dimensional epithelial tissue model MelanoDerm; test: Whitening effect: reduction in black areas in epithelial tissue models (MelanoDerm); assay type: cell-based
Description: An experiment was conducted to confirm the effect of suppressing the expression of NFκB, which is a transcription factor that induces inflammation. Epithelial tissue models were produced using a normal human three-dimensional epithelial tissue model production kit MelanoDerm (MEL-300; Kurabo). RSV was added to the culture media so that the final concentration was 0 μM (Ctrl), 30 μM, 50 μM, and 100 μM, and the tissue models were cultured according to the manual of the kit. RNA in the skin tissue models was collected three weeks after the addition of RSV, and subjected to quantitative PCR analysis to measure the expression level of NFκB. […] Epithelial tissue models were produced using the above kit. RSV was added to the culture media so that the final concentration was 0 μM (Ctrl), 30 μM, 50 μM, and 100 μM, and the tissue models were cultured according to the manual of the kit. Photographic images of the epithelial tissue models were taken three weeks after the addition of RSV. The degree of reduction in black areas due to the addition of RSV was calculated using ImageJ image-analysis software, and the results were graphed. […] Epithelial tissue models were produced in the same manner as in Example 5. RSV, 4 M-RSV, and 3P-RSV were each added so that the final concentration was 50 μM, and the skin tissue models were observed.

NFκB = test: Suppression of NFκB expression in epithelial tissue models (quantitative PCR); assay type: cell-based, human; settings: 30 μM, 50 μM and 100 μM, three weeks after addition (FIG. 11)
Description: An experiment was conducted to confirm the effect of suppressing the expression of NFκB, which is a transcription factor that induces inflammation. Epithelial tissue models were produced using a normal human three-dimensional epithelial tissue model production kit MelanoDerm (MEL-300; Kurabo). RSV was added to the culture media so that the final concentration was 0 μM (Ctrl), 30 μM, 50 μM, and 100 μM, and the tissue models were cultured according to the manual of the kit. RNA in the skin tissue models was collected three weeks after the addition of RSV, and subjected to quantitative PCR analysis to measure the expression level of NFκB.

[2] = Solubility in water at room temperature; assay type: physicochemical; settings: for solubility in distilled water: allowed to stand at room temperature, turbid or transparent tube (FIG. 7)
Description: FIG. 7 is a photographic image showing trans-resveratrol-3-O-β-D-monoglucoside contained in the fraction showing a single peak detected in FIG. 1 (A), and trans-resveratrol-3-O-β-D-diglucoside contained in the fraction (a) in FIG. 1 (B), after they were dissolved in distilled water and allowed to stand at room temperature.

OCC1OC(Oc2cc(O)cc(/C=C/c3ccc(OC4OC(CO)C(OC5OC(CO)C(O)C(O)C5O)C(O)C4O)cc3)c2)C(O)C(O)C1O [4M-RSV, trans-resveratrol-O-β-D-3-monoglucoside-4′-diglycoside]
rescue activity from cell death induced by hydrogen peroxide (percentage of cell death) (3T3 mouse fibroblasts): cell death almost equal to that of the case in which hydrogen peroxide was not added (Ctrl)
degree of reduction in black areas per molecular unit of RSV (whitening effect) ([1]; 50 μM (FIG. 13)): significantly excellent whitening effect

Oc1ccc(/C=C/c2cc(O)cc(O)c2)cc1 [RSV, Trans-resveratrol]
expression level of NFκB (NFκB): suppressed the expression level of NFκB in the epithelial tissue models in a concentration-dependent manner
reduction in black areas (whitening effect) ([1]; 30 μM, 50 μM and 100 μM, three weeks after addition, ImageJ (FIG. 12)): reduced black areas in the epithelial tissue models in a concentration-dependent manner

OCC1OC(OC2C(CO)OC(Oc3cc(O)cc(/C=C/c4ccc(O)cc4)c3)C(O)C2O)C(O)C(O)C1O [trans-resveratrol-3-O-β-D-diglucoside, trans-Resveratrol-3-O-β-D-diglucoside]
solubility in distilled water [2]: easily dissolved in distilled water at room temperature
water solubility at ordinary temperature ([2]; ordinary temperature, concluded from ethyl acetate/water partition and HPLC fractions): could acquire water solubility at ordinary temperature

OC[C@H]1O[C@@H](Oc2cc(O)cc(/C=C/c3ccc(O)cc3)c2)[C@H](O)[C@@H](O)[C@@H]1O [trans-resveratrol-3-O-β-D-monoglucoside, trans-Resveratrol-3-O-β-D-glucopyranoside, reference compound]
solubility in distilled water [2]: not dissolved in distilled water at room temperature
